Test results reported in ChEMBL document CHEMBL1125230, “Analysis of the in vitro antitumor activity of novel purine-6-sulfenamide, -sulfinamide, and -sulfonamide nucleosides and certain related compounds using a computer-aided receptor modeling procedure” (1991).

Each compound was assayed on L1210 (assay: In vitro growth inhibition of L1210 tumor cells).
Type: functional, Mus musculus

Row | Structure (SMILES) | Log 1/ID50
1 | C[C@H]1OC(n2cnc3c(SN)nc(N)nc32)[C@H](O)[C@@H]1O (stereo partly specified) | 6
2 | NS(=O)(=O)c1ncnc2c1ncn2[C@@H]1O[C@H](CO)[C@@H](O)[C@@H]1O | 4
3 | N=C1N=C(S)C2N=CN([C@H]3C[C@H](O)[C@@H](CO)O3)C2=N1 (stereo partly specified) | 7.3
4 | Nc1cc2c(ncn2C2O[C@H](CO)[C@@H](O)[C@H]2O)c([S+](N)[O-])n1 (mixture of isomers) | 3
5 | NS(=O)(=O)c1ncnc2c1ncn2[C@@H]1O[C@H](CO)[C@@H](O)[C@H]1O | 4.92
6 | Nc1nc([S+](N)[O-])c2ncn([C@@H]3C[C@@H](O)[C@H](CO)O3)c2n1 (mixture of isomers) | 4.45
7 | Nc1nc(S(N)(=O)=O)c2ncn(C3O[C@H](CO)[C@@H](O)[C@H]3O)c2n1 (stereo partly specified) | 5.7
8 | NSc1ncnc2c1cnn2C1O[C@H](CO)[C@@H](O)[C@H]1O (stereo partly specified) | 4.51
9 | Nc1nc([S+](N)[O-])c2ncn(C3O[C@H](CO)[C@@H](O)[C@H]3O)c2n1 (mixture of isomers) | 6
10 | C[C@H]1OC(n2cnc3c(S(N)(=O)=O)nc(N)nc32)[C@H](O)[C@@H]1O (stereo partly specified) | 5.42
11 | NSc1ncnc2c([C@@H]3O[C@H](CO)[C@@H](O)[C@H]3O)n[nH]c12 | 4.69
12 | NS(=O)(=O)c1ncnc2c1ncn2[C@H]1C[C@H](O)[C@@H](CO)O1 | 4.56
13 | C[C@H]1OC(n2cnc3c([S+](N)[O-])nc(N)nc32)[C@H](O)[C@@H]1O (mixture of isomers) | 5.55
14 | N[S+]([O-])c1ncnc2c1ncn2C1O[C@H](CO)[C@@H](O)[C@H]1O (mixture of isomers) | 4
15 | NSc1ncnc2c1ncn2[C@H]1C[C@H](O)[C@@H](CO)O1 | 6.66
16 | NC(=O)c1ncnc2c1cnn2C1O[C@H](CO)[C@@H](O)[C@H]1O (stereo partly specified) | 4.38
17 | N[S+]([O-])c1ncnc2c1ncn2[C@@H]1C[C@@H](O)[C@H](CO)O1 (mixture of isomers) | 4.6
18 | NSc1nc(N)nc2c1ncn2[C@H]1C[C@H](O)[C@@H](CO)O1 | 6.06
19 | NSc1ncnc2c1ncn2C1O[C@H](CO)[C@@H](O)[C@H]1O (stereo partly specified) | 5.22
20 | Nc1nc([S+](N)[O-])c2ncn([C@@H]3C[C@@H](O)[C@H](CO)O3)c2n1 (stereo in doubt; 9) | 5.52
21 | NSc1nc(N)nc2c1ncn2C1O[C@H](CO)[C@@H](O)[C@H]1O (stereo partly specified) | 6.52
